Data set [1] can be described thus: in vitro. The class given is cell-based. As to conditions: human, foreskin fibroblasts. An excerpt:
(§1) These complimentary assays tested the ability of a compound to inhibit the production of new virus and the toxicity of the compound to the host cells. It was important that both assays be performed simultaneously in order to compare the results directly since, toxicity may indirectly reduce viral yield.
(§2) Viral yield was estimated by measuring the amount of a viral antigen produced 4 days post infection with a monoclonal antibody to an abundant "immediate early" viral protein. An enzyme-linked (horseradish peroxidase) secondary antibody specific to the primary (mouse) antibody was used to measure the amount of viral antigen. Test compounds were diluted to 2-times the desired final concentration in DMEM + 5% FBS. One hundred microliters of this solution was placed in each well of a 96-well plate. This was performed once for the antiviral 96-well plate and again for a cytotoxicity plate. Two controls were also included for both plates; a no drug control and a no virus control. Ganciclovir was routinely tested in antiviral and cytotoxicity plates as a reference standard because it has known antiviral activity for HCMV. All cells were prepared by harvesting human foreskin fibroblasts, with trypsin and re-suspending at a concentration of 5 X 10^5 cells per ml in DMEM. Infected cells were prepared by infecting these with HCMV (strain AD169) at a multiplicity of infection = 0.2. One hundred microliters of uninfected cells (5 x 10^4 cells) were added to the appropriate wells of the cytotoxicity plate. In a similar manner 100 µl of infected cells (5 x 10^4 cells) were added to the appropriate wells of the antiviral plate. Additionally, uninfected cells not treated with test compound were included as controls on the antiviral plate. Plates were incubated for 96 hours at 37°C in 5% CO2 atmosphere and processed to measure the amount of viral antigen and toxicity.
(§3) In this assay, HCMV replication was monitored by the production of E. coli beta-galactosidase by the engineered virus RC256 [Spaete and Mocarski, Proc.Nat.Acad.Sci., 84, 7213 (1987)]. One antiviral assay and one cytotoxicity assay were done for each compound. Dilutions of test compounds and infection of cells in a 96-well plate was essentially as described above for the HCMV ELISA except for the following. Human foreskin fibroblasts at 3.5 x 10^5 cells per milliliter were infected in solution with RC256 at 0.05 pfu per cell. Compounds and cells were incubated 3 days and processed at […]. For the beta galactosidase detection, the supernatant was aspirated from the antiviral assay plates and 50 µl Reporter Lysis Buffer (Promega, diluted to 1X with water) was added per well. The plates were incubated at room temperature at least 30 minutes and plates were frozen at -20 °C at this point for later processing. 50 µl of 2X assay buffer [120 mM Na2HPO4, 80 mM NaH2PO4, 2 mM MgCl2, 100 mM 2-mercaptoethanol, 4.4 mM ONPG (Sigma)] was added per well and incubated at room temperature 30 to 45 minutes. The reaction was stopped with 100 µl 1M CAPS buffer, pH = 11.0, per well and the optical density was read at 410 nanometers. Ganciclovir was used as a positive control and the EC50 was determined as described above for the HCMV ELISA. Results (EC50/TD50) are included in Table 1.

Data set [2] addresses T1, Human leukocyte elastase (HLE) (Homo sapiens, UniProt P08246).
T1 construct: gift of R. Senior, Washington University
T1 sequence (P08246 30-267): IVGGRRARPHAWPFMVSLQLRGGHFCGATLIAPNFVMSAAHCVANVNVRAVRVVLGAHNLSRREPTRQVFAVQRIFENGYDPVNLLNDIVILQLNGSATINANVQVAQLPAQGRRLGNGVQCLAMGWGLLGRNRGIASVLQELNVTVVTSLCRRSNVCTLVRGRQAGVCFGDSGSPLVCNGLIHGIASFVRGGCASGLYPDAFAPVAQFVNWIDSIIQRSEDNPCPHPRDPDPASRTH
Put plainly: Human leukocyte elastase assay. It is filed as biochemical. As to conditions: read-out: HLE % @ Conc.
Procedure: Human leukocyte elastase (HLE) (gift of R. Senior, Washington University) was dissolved in saline at 1 mg/ml and further diluted 1/20 in assay buffer (0.2 M Tris, pH 8.0) before use. 10 µl of test compound in DMSO (or DMSO alone), 100 µl of assay buffer and 50 µl of enzyme were added to 96 well plates, mixed and pre-incubated for 30 minutes at ambient temperature. Reaction was initiated by addition of 40 µl of 2.5 mM methoxysuccinyl-Ala-Ala-Pro-Val-p-nitroanilide (Sigma; 25 mM in DMSO diluted 1/10 in assay buffer before use). The increase in absorbance at 405 nm was monitored for 10 minutes with a Biotek EL340 plate reader.

Another data set deals with RC256. Put plainly: Recombinant human cytomegalovirus antiviral assay (RC256, beta-galactosidase). Conditions: Human betaherpesvirus 5, read-out: Antiviral Activity EC50. It is filed as cell-based, HCMV.
Source text: as §1, §3

Data set [3] has as its target HCMV protease (Assemblin) (Human cytomegalovirus, UniProt P16753). Briefly: Enzymatic assay for HCMV protease (Assemblin) inhibitors, chromogenic pNA substrate. The class given is biochemical. The protocol: Assemblin protease activity was determined using a chromogenic para-nitroanilide (pNA) substrate based on the hCMV maturation cleavage site, succinyl-AGVVNA-paranitroanilide. […] Potential protease inhibitors were dissolved in DMSO and 10 µL were added to the wells of a 96-well plate (Dynatech, Immulon 1). Enzyme was diluted to 4.8 µg/mL in assay buffer (10 mM sodium phosphate, pH 7.4, 150 mM sodium acetate, 0.1% CHAPS, 20% glycerol) and 100 µL were added to each well. Following a 30 minute incubation at room temperature, 50 µL substrate (1 part 20 mM succinyl-AGVVNA-paranitroanilide (SEQID:1) in DMSO plus 9 parts assay buffer) were added, and periodic readings taken in a microplate reader at 405 nm relative to 650 nm. Activities were expressed as milliabsorbance unit (mAU) change per minute. Inhibitor potency was determined by comparison with incubations lacking inhibitor, which under these conditions gave an increase of 0.5-1 mAU/min. No increase was seen when enzyme was omitted. Results [IC50 (µM)] are included in Table 1.
The construction also encoded six additional histidine residues at the amino terminus of the protease. These additional histidine residues provided an affinity ligand by which it was purified using nickel-nitriloacetic acid-agarose (Qiagen).
The purified protease was stored as a 1-3 mg/ml stock solution in 20 mM HEPES buffer, pH 7.4; containing 20% (v/v) glycerol. This stock was diluted with assay buffer to 4.8 µg/ml. A 100 µL aliquot of this solution was used in the enzyme reaction.
A specific substrate was synthesized based on the cleavage specificity of HCMV protease at the "maturation site" of the assembly protein (F. Liu and B. Roizman, J. Virol., 65, 5149 (1991), and A. Welch, et al, J. Virol., 65, 4091 (1991)). The assembly protein maturation site has the sequence ...AGVVNA*SCRLATA...; the substrate used was succinyl-[…] (SEQID:1) which was prepared by standard peptide synthetic methods such as that described in Bodansky and Bodansky, "The Practice of Peptide Synthesis" (1984), and was stored as a stock solution at 20 mM in dimethyl sulfoxide. This was diluted 10-fold with assay buffer to give a concentration of 2 mM just before use. An aliquot of 50 µL was used in the reaction
An assay Buffer (10 mM sodium phosphate buffer, pH 7.4; 150 mM sodium acetate; 0.1% CHAPS; and 20% (v/v) glycerol) was used to dilute stock solutions of enzyme and substrate.

Data set [4] has as its target T2, Bovine pancreas α-chymotrypsin (Bos taurus, UniProt P00766, DEL14-15/DEL147-148).
T2 construct: Bovine pancreas α-chymotrypsin (type II, Sigma); purchased Sigma type II; host or cells: bovine pancreas
Briefly: Chymotrypsin assay. Conditions: read-out: Chymotrypsin % @ Conc. It is filed as biochemical. The protocol: The chymotrypsin assay was modified from the method of Delmar et al [Anal. Biochem., 99, 316-320 (1979)]. Bovine pancreas α-chymotrypsin (type II, Sigma) was dissolved in 0.001 N HCl at 1 mg/ml and further diluted 1/600 in assay buffer (0.1 M Tris, pH 7.8, containing 0.1 M CaCl2) before use. 20 µl of test compound in DMSO (or DMSO alone), 100 µl of assay buffer and 30 µl of enzyme were added to 96 well plates, mixed and pre-incubated for 30 minutes at ambient temperature. Reaction was initiated by addition of 50 µl of 0.2 mM N-succinyl-Ala-Ala-Pro-Phe-p-nitroanilide (Sigma; 2 mM in DMSO diluted 1/10 in assay buffer before use). The increase in absorbance at 405 nm was monitored for 10 minutes with a Biotek EL340 plate reader.

The nature of data set [5]: in vitro. As to conditions: human, foreskin fibroblasts. It is filed as cell-based.
Source text: as §1
as §2, with “One hundred microliters of uninfected cells (5 x 10^4 cells) were added to the appropriate wells of the cytotoxicity plate. In a similar manner 100 µl of infected cells (5 x 10^4 cells) were added to the appropriate wells of the antiviral plate. Additionally, uninfected cells not treated with test compound were included as controls on the antiviral plate. Plates were incubated for 96 hours at 37°C in 5% CO2 atmosphere and processed to measure the amount of viral antigen and toxicity.” left out
The source holds these as a separate data set.

The test system of a further data set is HCMV (strain AD169). Put plainly: Antiviral assay, ELISA for HCMV antigens. Conditions: Human betaherpesvirus 5, AD169, 96 hours. The class given is cell-based.
Source text: as §1
Viral yield was estimated by measuring the amount of a viral antigen produced 4 days post infection with a monoclonal antibody to an abundant "immediate early" viral protein. An enzyme-linked (horseradish peroxidase) secondary antibody specific to the primary (mouse) antibody was used to measure the amount of viral antigen. Test compounds were diluted to 2-times the desired final concentration in DMEM + 5% FBS. One hundred microliters of this solution was placed in each well of a 96-well plate. This was performed once for the antiviral 96-well plate and again for a cytotoxicity plate. Two controls were also included for both plates; a no drug control and a no virus control. […]
The following was performed on the antiviral plate only. […] The reaction was stopped by adding 100 µL of phosphoric acid and the OD at 450 nm recorded. […] Antiviral activity was calculated by comparing the amount of viral antigen produced in drug treated wells with that produced in wells absent of drug. […]
A general note: An ELISA detects its analyte on a solid surface through an enzyme-linked reagent.

[6] abbreviates: read-out: Assemblin Protease % @ Conc.

The term CC50 denotes the concentration giving 50% cytotoxicity. By EC50 is commonly meant the concentration needed to bring the measured effect to its halfway point.

Chain of HCMV protease (Assemblin) (P16753 1-256): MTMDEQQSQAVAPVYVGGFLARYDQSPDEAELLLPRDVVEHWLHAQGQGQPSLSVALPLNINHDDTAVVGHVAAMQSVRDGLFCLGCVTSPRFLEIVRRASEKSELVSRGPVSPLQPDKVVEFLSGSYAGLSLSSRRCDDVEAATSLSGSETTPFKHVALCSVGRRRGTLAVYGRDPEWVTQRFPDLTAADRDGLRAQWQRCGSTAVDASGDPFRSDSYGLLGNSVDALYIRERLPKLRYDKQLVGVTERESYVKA

In the case of `O=C(Nc1ccccc1C(=O)C(F)(F)F)c1ccco1` [Example 1, N-[2-(2,2,2-trifluoro-1-oxoethyl)phenyl]furan-2-carboxamide], in the data set “in vitro [1]”, the CC50 was > 100 µM. Moreover, the inhibition at 300 µM in data set [2] (@ 300 µM) amounted to 25%. For the same compound, the EC50 with RC256 turned out to be 45 µM.

In turn, “N-[2,2,2-trifluoro-1-oxoethyl)phenyl]indolyl-2-carboxamide [Example 15]” had a percent inhibition in data set [3] (@ 100 µM) of 30% @ 100.

In the case of `O=C(Nc1ccccc1C(=O)C(F)(F)F)c1cc2ccccc2s1` [Example 9, N-[2-(2,2,2-trifluoro-1-oxoethyl)phenyl]-1-benzothiophene-2-carboxamide], the cytotoxic concentration (CC50) in “in vitro [1]” was > 100 µM. Besides, in the data set with RC256, the 50% effective concentration (EC50) stood at 30 µM. For the same compound, in data set [4], the inhibition at 100 µM came to 48%.

Regarding `O=C(Nc1ccccc1C(=O)C(F)(F)F)C(F)(F)F` [Example 10, α,α,α-trifluoro-N-[2-(2,2,2-trifluoro-1-oxoethyl)phenyl]acetamide], in the data set “in vitro [5]”, the cytotoxic concentration (CC50) at 96 h is > 100 µM. Further, the concentration giving a half-maximal response (EC50) in the data set with HCMV (strain AD169) is > 100 µM. The inhibition at 100 µM in data set [4] is 49%. Moreover, in data set [3] (@ 10 µM, read-out: Assemblin Protease % @ Conc.), the inhibition at 10 µM turned out to be 39%.

For the compound `O=C(CCc1ccccc1)Nc1ccccc1C(=O)C(F)(F)F` [Example 4, N-[2-(2,2,2-trifluoro-1-oxoethyl)phenyl]benzenepropanamide], the inhibition at 100 µM in data set [4] is 11%.

In the case of `O=C(Nc1ccc(F)cc1C(=O)C(F)(F)F)c1ccco1` [Example 8, N-[4-fluoro-2-(2,2,2-trifluoro-1-oxoethyl)phenyl] furan-2-carboxamide], the inhibition at 33 µM in data set [3] (setting [6]) was 18%.

Turning to `O=C(Nc1ccccc1C(=O)C(F)(F)F)OCc1ccccc1` [Example 6, phenylmethyl N-[2-(2,2,2-trifluoro-1-oxoethyl)phenyl]carbamate], the inhibition at 100 µM in data set [4] worked out at 21%.

Take `COc1ccccc1C(=O)Nc1ccccc1C(=O)C(F)(F)F` [Example 12, N-[2-(2,2,2-trifluoro-1-oxoethyl)phenyl]2-methoxybenzamide]: the inhibition at 33 µM in data set [3] (setting [6]) was found to be 14%.

Turning to `O=C(CCc1ccccc1)Nc1cc([N+](=O)[O-])ccc1C(=O)C(F)(F)F` [Example 7, N-[5-nitro-2-[2,2,2-trifluoro-1-oxoethyl)phenyl]benzenepropanamide], the half-maximal cytotoxic concentration (CC50) at 96 h in the data set “in vitro [5]” was > 100 µM. In addition, the concentration giving a half-maximal response (EC50) with HCMV (strain AD169) was 16 µM. Moreover, the inhibition at 100 µM in data set [4] amounted to 27%. Further, in data set [3] (setting [6]), the inhibition at 33 µM was 84%.

For the compound `O=C(CCc1ccccc1)Nc1cc(F)ccc1C(=O)C(F)(F)F` [Example 2, N-[5-fluoro-2-(2,2,2-trifluoro-1-oxoethyl)phenyl]benzenepropanamide], in the data set “in vitro [1]”, the cytotoxic concentration (CC50) was > 100 µM. The results for the inhibition at 100 µM in data set [2] (@ 100 µM) and in data set [4] were 26% and 48%, respectively. Also, in the data set with RC256, the concentration giving a half-maximal response (EC50) is 57 µM.

As to `O=C(Nc1ccccc1C(=O)C(F)(F)F)c1cnccn1` [Example 5, N-[2-(2,2,2-trifluoro-1-oxoethyl)phenyl]pyrazine-2-carboxamide], the half-maximal cytotoxic concentration (CC50) in “in vitro [1]” is > 100 µM. Also, in the data set with RC256, the half-maximal effective concentration (EC50) is 55 µM. For the same compound, in data set [4], the inhibition at 300 µM amounted to 0%.

As for `O=C(Nc1ccccc1C(=O)C(F)(F)F)c1ccccn1` [Example 11, N-[2-(2,2,2-trifluoro-1-oxoethyl)phenyl]pyridine-2-carboxamide], the inhibition at 33 µM in data set [3] (setting [6]) worked out at 40%.

As for `COc1ccccc1C(=O)Nc1ccccc1C(=O)C(F)(F)C(=O)NC(C)C` [Example 17, N-[2-(3-(2-propylamino)-3-oxo-2,2-difluoro-1-oxopropyl)phenyl]2-methoxyphenylcarboxamide], the inhibition at 300 µM in data set [4] worked out at 0%.

For the origin of these results see patent EP0888322B1, “ELECTROPHILIC KETONES FOR THE TREATMENT OF HERPESVIRUS INFECTIONS” (G.D. SEARLE & CO., priority 1996, dated 1997).
